Earlier results, collected in patent publication US5756508A, “Muscarine antagonists” (Merck & Co., Inc., priority 1996, dated 1998).

Experiments:
[1] = system: axial elongation of the eye; conditions: background statement
[2] = system: smooth muscle (ordinarily called m3 type); conditions: background statement
[3] = background statement
pupil; ciliary muscle = conditions: background statement
[4] = system: muscarinic receptors (antimuscarinic); conditions: background statement

Row | SMILES | inhibition of axial elongation / enlargement of the eye [1] | selectivity for smooth muscle (m3 type) receptors [2] | sensitization [3] | impairment of ocular focusing / near visual work (pupil; ciliary muscle) | pupil dilation (mydriasis) (pupil; ciliary muscle) | antimuscarinic action / specificity [4]
1 | CN1CCc2cccc3c2[C@H]1Cc1ccc(O)c(O)c1-3 [apomorphine] | found to inhibit or actually prevent the axial enlargement of the eye |  |  |  |  | 
2 | C[N+]1(C)CCC(OC(=O)C(c2ccccc2)c2ccccc2)CC1 [Example 4-DAMP, 4-diphenylacetoxy-N-methylpiperadine methiodide] |  | relatively selective antagonist for smooth muscle |  |  |  | 
3 | CN1[C@@H]2CC[C@H]1C[C@@H](OC(=O)C(CO)c1ccccc1)C2 (stereo partly drawn) [atropine] |  |  | test positive in sensitization assays | impairs near visual work like reading | causes mydriasis (increase of pupil size) | long-acting non-specific antimuscarinic agent
4 | CN1CCN(CC(=O)N2c3ccccc3C(=O)Nc3cccnc32)CC1 [pirenzepine] | inhibits axial elongation |  | test positive in sensitization assays |  | far less effective at pupil dilation than atropine | 
